Assay results reported in patent US5856189A, “Cell culture model for drug bioavailability” (priority 1997, dated 1999).

How the values were obtained:
[1] = tested on: IFABP; test: Immunoblot of IFABP in Caco-2 cells; assay type: cell-based, human; conditions: two weeks treatment, varying concentrations
Source text: (§1) The homogenates were electrophoresed in polyacrylamide gels containing 0.1% SDS, and the separated proteins were electrophoretically transferred to nitrocellulose. Nonspecific binding sites were blocked using 0.3% Tween 20 and 5% nonfat dry milk (Carnation) in Tris buffered saline.
(§2) P-glycoprotein was detected using a polyclonal rabbit antibody (Oncogene Science), and villin was detected using a mouse monoclonal antibody (Chemicon International).
(§3) Secondary antibodies of appropriate specificities conjugated with horseradish peroxidase were obtained commercially (rabbit anti-mouse IgG and goat anti-rabbit IgG/A/M from Zymed and mouse anti-goat IgG/A/M from Pierce). Binding of secondary antibodies was detected using the enhanced chemiluminescence (ECL™) reagents and film from Amersham.
(§4) Cell homogenates were then prepared as described above and immunoblots were performed; the Caco-2 protein loads were as follows: 10 ,μg for CYP3A, CYP3A5, P-glycoprotein, villin; 25 pg for CYP1A1, CYP2D6; 40 μg for IFABP, LFABP; 80 μg for NADPH cytochrome P450 reductase, cytochrome b5 (the villin, IFABP, and LFABP served as control proteins).

[2] = tested on: NADPH cytochrome P450 reductase; test: Immunoblot of NADPH cytochrome P450 reductase in Caco-2 cells; conditions: for concentrations at which NADPH cytochrome P450 reductase level increased: two weeks treatment
Source text: as §1, §3, §4
(§5) At that time, the medium was replaced with medium without vitamin D (except that contributed by the 5% FBS. Total RNA was then prepared as described above and subjected to RT-PCR using synthetic oligonucleotide primer pairs designed to selectively amplify fragments of the CYP3A4 and villin cDNAs (see Table 3). The numbers of PCR cycles were as follows: CYP3A4, 36; and villin, 27. Moreover, immunoblots were performed as described above for CYP3A, NADPH cytochrome P450 reductase, P-glycoprotein, and villin. The protein loads used for the immunoblot procedures were as follows: 5 μg for CYP3A, P-glycoprotein, villin; and 40 ,μg for NADPH cytochrome P450 reductase.

[3] = tested on: LFABP; test: Immunoblot of LFABP in Caco-2 cells; assay type: cell-based, human; conditions: two weeks treatment, varying concentrations
Source text: as §1, §2, §3, §4

[4] = tested on: cytochrome b5; test: Immunoblot of cytochrome b5 in Caco-2 cells; assay type: cell-based, human; conditions: two weeks treatment, varying concentrations
Source text: as §1, §3, §4

[5] = tested on: CYP3A (Caco-2 cells); test: Immunoblot of CYP3A immunoreactive protein in treated Caco-2 cells; conditions: for CYP3A4 expression at the highest concentrations used: FIGS. 2C and 3
Protocol: The medium was aspirated and the inserts were washed three times with Hanks' BSS containing 15 mM HEPES. Cells grown on Matrigel- (or Growth Factor Reduced Matrigel-) coated inserts were removed from the membranes using Dispase according to the manufacturer's protocol. Thereafter, 5 mM EDTA in normal saline containing 1 mM PMSF and 1 mM benzamidine was added to inhibit further digestion. The cell suspension was transferred to a microcentrifuge tube and pelleted by centrifugation at 325 g. The pellets were washed three times with Hanks' BSS containing 15 mM HEPES, 1 mM PMSF, and 1 mM benzamidine. The final pellet was resuspended in a solution of 20% v/v glycerol, 100 mM Tris HCl (pH 7.4), 10 mM EDTA, 1 mM dithiothreitol, I mM PMSF, 1 mM benzamidine, and 100 μg/mL aprotinin and homogenized in a conical ground glass tissue grinder with 20 passes of a ground glass pestle. The homogenate was subjected to 10 seconds of sonication and was then kept at -80° C. until analysis.
Cells grown on uncoated inserts or inserts coated with non-Matrigel matrices were harvested by scraping into Hanks' BSS containing HEPES and protease inhibitors, washed three times, and then homogenized, sonicated, and frozen as described above.
as §1
CYP1A1 was detected using a polyclonal goat antibody (Gentest) developed against rat CYP1A1 and CYP1A2. […] CYP3A proteins were detected using a mouse monoclonal antibody ("13-7-10") obtained from Dr. Pierre Kremers (Universite de Liege, Liege, Belgium). […] This antibody detects all known forms of human CYP3A.
as §3
In some cases, immunoblot protein concentrations were determined by computer-aided densitometry. When this procedure was conducted, optical densities were performed on a Macintosh (Apple) computer using the publicly available NIH Image program (developed at the U.S. National Institutes of Health and available on the Internet at http://rsb.info.nih.gov/nih-image/). Individual exposures were scanned into binary images with a ScanJetIIc color scanner (Hewlett-Packard). An optical density-concentration standard curve was prepared using the bands from second loaded serial dilutions of purified CYP3A4 protein, and the optical densities of unknowns were converted to quantitative numbers by comparison to this curve. This allowed for correction of the nonlinearity of ECL light output and ECL Hyperfilm.

[6] = tested on: CYP3A5; test: Immunoblot of CYP3A5 protein in Caco-2 cells; assay type: cell-based, human; conditions: two weeks treatment, varying concentrations
Protocol: CYP3A5 was detected using an immunoadsorbed polyclonal rabbit antibody obtained from Dr. Steven A. Wrighton (Eli Lilly). The antibody may be generated by injecting rabbits subcutaneously with 100 μg of P450IIIA5 in 0.75 mL of phosphate-buffered saline in an emulsion made with 1.25 mL of Freund's complete adjuvant. Four weeks later, 50 μg of P450IIIA5 (in the same preparation) is injected. Finally, eight weeks from the initial injection, 50 μg of […] in 300 μL of phosphate-buffered saline is injected intravenously into the rabbits' ear vein. Serum was obtained 10 weeks following the initial immunization and weekly thereafter. The IgG fraction was then isolated and antibodies specific to CYP3A5 were isolated by adsorption of contaminating antibodies to sepharose-bound CYP3A4 [S. A. Wrighton et al., Mol. Pharmacol. 38:207-213 (1990).

[7] = tested on: CYP2D6; conditions: two weeks treatment, varying concentrations
Source text: as §1
CYP2D6 was detected using a polyclonal rabbit antibody developed against unique antigenic peptides and was obtained from Dr. Alastair Cribb (Merck Research Laboratories, West Point, Pa.).
as §3

[8] = tested on: villin; test: Immunoblot of villin in Caco-2 cells; assay type: cell-based, human; conditions: for villin expression at the highest concentrations used: FIG. 3
Source text: as §1, §2, §3, §4

[9] = tested on: P-glycoprotein; test: Immunoblot of P-glycoprotein in Caco-2 cells; assay type: cell-based, human
Source text: as §1, §2, §3, §4

[10] = tested on: CYP1A1; test: Immunoblot of CYP1A1 protein in Caco-2 cells; assay type: cell-based, human; conditions: two weeks treatment, varying concentrations
[11] = tested on: CYP3A (Caco-2 cells)
Protocol: At the end of that period, the medium was replaced with medium not containing vitamin D (except that contributed by the 5% FBS). […] After 6 hours, the apical and basolateral media were removed separately and analyzed for 1'-OH-MDZ concentration.
As previously indicated, the medium was aspirated and the inserts were washed three times with Hanks'BSS. […] After 6 hours, the amount of 1'-OH-MDZ was measured in the combined luminal plus basolateral medium from each culture and the rate of formation calculated.
For the experiments of this example, all cells (Caco-2 cell clones and the parent cell line) were grown on Matrigel-coated teflon culture inserts. […] At the end of this period, the medium was replaced with medium not containing vitamin D (except that contributed by the 5% FBS). Next, MDZ (4 μM) was added to the apical compartment. […] Catalytic activity and levels of protein expression were determined as previously described.
Catalytic activity and levels of protein expression were determined as previously described.

[12] = tested on: CYP3A4 mRNA (Caco-2 cells)
Protocol: Harvesting for mRNA Analyses and RNA Isolation
The medium was aspirated and the culture inserts were washed three times with Hanks' BSS containing 15 mM HEPES. […] After 5 minutes, the cell lysate was transferred to a microcentrifuge tube and kept at -80° C. pending further processing. At a later time, the lysate was thawed quickly at 65° C., and total RNA was isolated according to the protocol of P. Chomczynski and N. Sacchi. Briefly, extraction was performed using the denaturing solution, 2M sodium acetate (pH 4), phenol, and chloroform (1:0.1:1:0.2). Next, precipitation was effected with 2 volumes of ethanol. Resolubilization and reprecipitation was then performed using the denaturing solution and 2 volumes of ethanol. […] The reagent volumes were adjusted proportionately as appropriate for the initial lysate volume.
(§6) cDNA was prepared from the total RNA using reverse transcriptase from avian myeloblastosis virus (Seikagaku America). […] The polymerase chain reaction was performed on 1 μL of a 1:10 dilution in water of a prepared cDNA.
Each thermal cycle consisted of 95° C. for 1 min, then 65° C. for 1 min 15 sec; after completing all cycles, a 10 min extension step at 65° C. was performed. The number of cycles performed in each PCR reaction is set forth below in the Examples.
(§7) PCR products were electrophoresed on agarose gels and stained with ethidium bromide. […] PCR products were judged to be of the size appropriate for amplification of the specific cDNA by comparison with molecular weight standards included on each gel.
An internal standard for quantitative competitive PCR of CYP3A4 cDNA was prepared by inserting a 30 base pair segment into the cDNA sequence to be amplified. PCR reaction mixtures were prepared by combining serial dilutions of a known amount of the standard cDNA and constant amounts of the unknown cDNA. The two cDNAs were amplified together and the products were separated on agarose gels. After staining with ethidium bromide, the two bands were quantitated densitometrically. An equivalence point (at which the densities of the standard and unknown bands are of equal optical density) was determined; the concentration of the unknown is equal to that of the standard at the point of equivalence.
The cells from all experiments were maintained in their respective differentiation media for two weeks post-confluence. Thereafter, the cells were used for midazolam metabolism studies and/or harvested for analysis of protein or mRNA (described below).
(§8) The numbers of PCR cycles were as follows: CYP3A4, 36; CYP3A5, 33; CYP3A7, 39; mdr-1, 34; IFABP, 32; and villin, 27.
as §5

[13] = tested on: Caco-2 cells; conditions: cited from earlier work
[14] = tested on: CYP3A5 mRNA (Caco-2 cells); test: RT-PCR of CYP3A5 mRNA in treated Caco-2 cells; conditions: 0.05-1.0 μM, two weeks
Protocol: as §6
(§9) Each thermal cycle consisted of 95° C. for 1 min, then 65° C. for 1 min 15 sec; after completing all cycles, a 10 min extension step at 65° C. was performed.
as §7, §8

[15] = tested on: CYP3A3 mRNA (Caco-2 cells); test: RT-PCR of CYP3A3 mRNA in treated Caco-2 cells; assay type: cell-based, human; conditions: treated or untreated Caco-2 cells
Source text: Primer sequences for amplification of CYP3A3, CYP3A4, CYP3A5, and
These are the same primer sequences previously used by J. C. Kolars et al. [Pharmacogenetics 4:247-259 (1994)], except that a different antisense primer (SEQ ID NO:9) was used for CYP3A5, and the first sense primer for CYP3A3 was paired with the second antisense primer used by Kolars et al. (i.e., in the present invention, SEQ ID NO:1 was paired with SEQ ID NO:2).

[16] = tested on: CYP3A7 mRNA (Caco-2 cells); test: RT-PCR of CYP3A7 mRNA in treated Caco-2 cells; conditions: 0.05-1.0 μM, two weeks
Protocol: as §6, §9, §7, §8

[17] = target: CYP3A (Caco-2 cells) (Homo sapiens, UniProt P08684); conditions: serum-free; 4 μM MDZ apical, 6.5 h; FIG. 9
Protocol: Standards were also prepared in duplicate. Known amounts of MDZ and 1'-OH-MDZ (1-50 ng) were combined with 100 mM potassium phosphate buffer, pH 7.4.
Unknowns and standards were extracted with 5 mL ethyl acetate and the upper organic layer transferred to clean tubes. The solvent was evaporated to dryness under a stream of nitrogen. The remaining solvent was reconstituted in 100 μL derivatizing reagent (10% N-methyl-N-(t-butyldimethylsilyl)trifluoroacetamide in acetonitrile).
At the end of this period, the medium was replaced with medium not containing vitamin D (except that contributed by the 5% FBS). Next, 4 μM MDZ was added to the apical (luminal) or basolateral (serosal) medium of the cells.
Parent drug and metabolite concentrations measured at 1 and 2 hours after MDZ administration were used for computation. The amount of 1'-OH-MDZ formed during this interval was determined as the sum of metabolite in the apical and basolateral compartments at 2 hours minus the total amount measured at 1 hour.
Because the incubation medium contained significant amounts of FBS, the fraction of MDZ bound to culture medium proteins was measured by equilibrium dialysis. […] The unbound concentration of MDZ in the apical and basolateral compartments during cell culture was calculated as the product of the experimentally determined MDZ-free fraction and total MDZ concentration. Since MDZ concentrations in the apical and basolateral compartments were not at equilibrium during the 1-2 hour MDZ incubation interval, the intracellular reaction was assumed to be driven by a MDZ concentration that was more closely aligned with the concentration in the basolateral compartment.
At the end of this period, the medium was replaced with medium containing neither serum nor vitamin D. Next, MDZ (4 μM) was added to the apical compartment.

[18] = tested on: Caco-2 cells; test: Apical/basolateral distribution of midazolam and metabolite across Caco-2 monolayers; conditions: every time point, also after basolateral MDZ
Source text: At the end of this period, the medium was replaced with medium not containing vitamin D (except that contributed by the 5% FBS).

[19] = tested on: Caco-2 cells; test: Glucuronidation of 1'-OH-MDZ in Caco-2 cells; conditions: 2-24 h with 4 μM MDZ; β-glucuronidase
Protocol: The experiments of this example assess whether glucuronidation occurs in the culture system of the present invention. […] Each of a complete set of parallel 0.5 mL samples was diluted to a volume of 1 mL and spiked with 20 ng 1'-[^2 H2 ],1'-OH-MDZ (no glucuronidase treatment).

[20] = two weeks treatment from confluence, 4 μM MDZ apical, 6 h, FIG. 2A

CYP3A (Caco-2 cells) (Homo sapiens, UniProt P08684), sequence (P08684 2-503): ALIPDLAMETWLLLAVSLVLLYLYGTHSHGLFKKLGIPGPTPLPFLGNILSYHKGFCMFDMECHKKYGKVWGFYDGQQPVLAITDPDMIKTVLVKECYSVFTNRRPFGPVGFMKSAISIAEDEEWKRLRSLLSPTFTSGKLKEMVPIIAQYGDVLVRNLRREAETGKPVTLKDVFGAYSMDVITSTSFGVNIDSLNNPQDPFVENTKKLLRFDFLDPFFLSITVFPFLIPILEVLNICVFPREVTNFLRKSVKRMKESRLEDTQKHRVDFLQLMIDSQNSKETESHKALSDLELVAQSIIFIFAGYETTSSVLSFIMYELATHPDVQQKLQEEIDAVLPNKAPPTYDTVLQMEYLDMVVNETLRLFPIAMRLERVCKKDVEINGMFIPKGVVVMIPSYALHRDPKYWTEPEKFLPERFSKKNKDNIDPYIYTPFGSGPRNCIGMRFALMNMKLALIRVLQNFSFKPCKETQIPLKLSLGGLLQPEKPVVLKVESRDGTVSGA

For C=C1CC[C@H](O)C/C1=C/C=C1\CCC[C@]2(C)[C@@H]([C@H](C)CCCC(C)(C)O)CC[C@@H]12 [25-(OH)-D3, 25-hydroxyvitamin D3], the “level of IFABP protein” value [1] was “Neither of the FABPs showed changes in levels of expression”, the “concentrations at which NADPH cytochrome P450 reductase level increased” value [2] was ≥ 500 nM and the “level of LFABP protein” value [3] was “Neither of the FABPs showed changes in levels of expression”. For the same molecule, the “level of cytochrome b5 immunoreactive protein” value [4] was “did not appear to change”, the “CYP3A4 expression at the highest concentrations used” value [5] was “lower levels of expression” and the “concentration at which CYP3A immunoreactive protein plateaued” value ([5]; two weeks treatment, FIG. 2C) was > 1000 nM. For the same molecule, the “concentration at which increase in CYP3A immunoreactive protein was evident / began” value ([5]; two weeks treatment, FIG. 2C) was 250 nM, the “level of CYP3A5 protein” value [6] was “little change” and the “level of CYP2D6 protein” value [7] was “did not appear to change”. For the same molecule, the “level of villin immunoreactive protein” value ([8]; concentrations ≥10 μM, two weeks, not shown) was “decrease slightly”, the “villin expression at the highest concentrations used” value [8] was “lower levels of expression” and the “concentrations at which immunoreactive P-glycoprotein increased” value ([9]; two weeks treatment) was ≥ 2.5 µM. The “level of CYP1A1 protein” value [10] was “did not appear to change”, the “CYP3A catalytic activity at 15 μM” value ([11]; 15 μM, relative to maximum at 5 μM, FIG. 2B) was “substantially declined” and the “CYP3A catalytic activity at 20 μM” value ([11]; 20 μM, FIG. 2B) was “declining still further”. The “maximal CYP3A catalytic activity achieved” value ([11]; relative to 1α,25-(OH)2 -D3) was “not as great as that achieved with 1α,25-(OH)2 -D3”, the “concentration at which increase in CYP3A catalytic activity was evident / began” value [11, 20] was 250 nM and the “concentration at which CYP3A catalytic activity plateaued” value ([11]; two weeks treatment from confluence, FIG. 2A) was > 1000 nM. For the same molecule, the “concentration of maximal CYP3A catalytic activity” value ([11]; two weeks treatment, FIG. 2B) was 5000 nM.

For C=C1CC[C@H](O)C/C1=C/C=C1\CCC[C@]2(C)[C@@H]([C@H](C)/C=C/[C@H](C)C(C)C)CC[C@@H]12 [vitamin D2, ergocalciferol], the “enhancement of CYP3A4 mRNA expression” value [12] was “did not appear to enhance CYP3A4 mRNA expression”.

For CC1(S(=O)(=O)O)CC(=O)c2ccccc2C1=O (stereo not shown) [vitamin K, menadione sodium bisulfite], the “enhancement of CYP3A4 mRNA expression” value [12] was “did not appear to enhance CYP3A4 mRNA expression”.

In the case of C=C1CC[C@H](O)C/C1=C/C=C1\CCC[C@]2(C)[C@@H]([C@H](C)CCCC(C)C)CC[C@@H]12 [D3, cholecalciferol], the “effect on immunoreactive CYP3A protein” value ([5]; up to 1.0 μM, two weeks) is given as “no effect”, the “effect on midazolam metabolism” value ([11]; up to 1.0 μM, two weeks) is given as “no effect” and the Caco-2 cell growth ([13]; Giuliano et al.) is given as “decrease in cell growth”. The Caco-2 cell proliferation ([13]; Halline et al.) was “dose-dependent inhibition of cell proliferation”.

For CC(=O)OC/C=C(C)/C=C/C=C(C)/C=C/C1=C(C)CCCC1(C)C [Vitamin A, retinol acetate], the “enhancement of CYP3A4 mRNA expression” value [12] was “did not appear to enhance CYP3A4 mRNA expression”.

For C=C1/C(=C\C=C2/CCC[C@]3(C)[C@@H]([C@H](C)CCCC(C)(C)O)CC[C@@H]23)C[C@@H](O)C[C@@H]1O [1α,25-(OH)2 -D3, 1α,25-dihydroxyvitamin D3], the “CYP3A5 mRNA expression” value [14] was “appeared to increase in response to 1α,25-(OH)2 -D3, but to a much lesser degree”, the “NADPH cytochrome P450 reductase expression among clones and parent line” value ([2]; 0.25 μM two weeks) was “variable responsiveness” and the “exposure time until NADPH cytochrome P450 reductase increased” value ([2]; 0.25 μM, FIG. 5A) was 168 h. The “concentrations at which NADPH cytochrome P450 reductase level increased” value [2] was ≥ 50 nM, the “level of LFABP protein” value [3] was “Neither of the FABPs showed changes in levels of expression” and the “exposure time at which CYP3A4 mRNA appeared to plateau” value ([12]; 0.25 μM, FIG. 5A) was 120 h. The “exposure time until increase in CYP3A4 mRNA was evident” value ([12]; 0.25 μM, FIG. 5A) was 3 to 4 h, the “CYP3A4 mRNA expression, dose-response” value ([12]; 0.05-1.00 μM, two weeks from confluence) was “increased CYP3A4 mRNA expression at all concentrations used” and the “expression of CYP3A4 mRNA” value ([12]; added to differentiation medium (0.63 μM), two weeks post-confluence, Matrigel-coated Millicell CM inserts) was “dramatic increase in the expression of CYP3A4 mRNA”. The “CYP3A immunoreactive protein, clones and parent line” value ([5]; 0.25 μM two weeks, all five clones and parent) was “increased levels of CYP3A immunoreactive protein”, the “exposure time until increased CYP3A protein was evident” value ([5]; 0.25 μM, FIG. 5A) was 18 h and the “CYP3A content by densitometry” value ([5]; 0.5 μM, untreated 7.9) was 20.6 pmol CYP3A/mg of total protein. The “CYP3A expression in response to 1α,25-(OH)2 -D3 on Matrigel” value ([5]; M+, D+, 0.25 μM) was “clearly enhanced when the Caco-2 cells were grown on Matrigel”, the “CYP3A4 expression at the highest concentrations used” value [5] was “lower levels of expression” and the “concentration at which increase in CYP3A immunoreactive protein was evident / began” value ([5]; two weeks treatment, FIG. 2C) was 50 nM. The “level of CYP3A5 protein” value [6] was “little change”, the “CYP3A3 mRNA” value [15] was “not detected” and the “level of CYP2D6 protein” value [7] was “did not appear to change”. For the same molecule, the “villin expression at the highest concentrations used” value [8] was “lower levels of expression”, the “exposure time until P-glycoprotein increased” value ([9]; 0.25 μM, FIG. 5A) was “about 72 hours” and the “level of CYP1A1 protein” value [10] was “did not appear to change”. The “CYP3A catalytic activity, clones and parent line” value ([11]; 0.25 μM two weeks, clones 4-8 and parent, untreated below limits of quantitation) was “demonstrably greater catalytic activity than the untreated cells”, the “exposure time until midazolam metabolism first detectable” value ([11]; 0.25 μM, 4 μM MDZ apical, 6 h, FIG. 5B) was 12 h and the “difference in CYP3A catalytic activity among culture media” value ([11]; 5% FBS media with 0.25 μM 1α,25-(OH)2 -D3) was “less than 4 fold”. The “CYP3A protein and catalytic activity without Matrigel” value ([11]; M-, D+, 0.25 μM) was “increased CYP3A protein and catalytic activity in the absence of Matrigel”, the “extent of midazolam metabolism” value ([11]; apical concentrations, FIG. 2A) was “dramatic increase in the extent of midazolam metabolism” and the “correlation (R) of midazolam 1'-hydroxylation activity with CYP3A immunoreactive protein” value ([11]; clones and parent with and without treatment, p=0.0003) was 0.987. For the same molecule, the “concentration at which increase in CYP3A catalytic activity was evident / began” value [11, 20] was 50 nM and the “CYP3A7 mRNA expression” value [16] was “appeared to increase in response to 1α,25-(OH)2 -D3, but to a much lesser degree”.

For CCCC(=O)[O-].[Na+] [sodium butyrate], the “enhancement of CYP3A4 mRNA expression” value [12] was “did not appear to enhance CYP3A4 mRNA expression”.

With NCC(=O)CCC(=O)O [delta-aminolevulinic acid] the “enhancement of CYP3A4 mRNA expression” value [12] was “did not appear to enhance CYP3A4 mRNA expression”.

In the case of OCc1ncc2n1-c1ccc(Cl)cc1C(c1ccccc1F)=NC2 [1'-OH-MDZ, 1'-hydroxymidazolam], the “rate of 1'-OH-MDZ formation under serum-free incubation” value [17] is reported as “decreased compared to that measured in the presence of serum”, the “rate of 1'-OH-MDZ formation, luminal vs basolateral medium” value [17] is reported as “greater in the luminal medium than in the basolateral medium” and the “1'-OH-MDZ concentration, apical vs basolateral” value [18] is reported as “greater in the apical medium than in the basolateral medium”. The “glucuronidation of 1'-OH-MDZ” value [19] was “had not occurred”.
